Data reported in PubChem BioAssay AID623938 (Vanderbilt Specialized Chemistry Center, 2012).
The source made the active and inactive calls. The rule behind the calls is not given here.

Biological target: Muscarinic acetylcholine receptor M4 (Homo sapiens) (UniProt P08173)
Assay: potency of ACh potentiation at hM4 – cell-based, calcium mobilization, human receptor, SAR follow-up (AID 623938)
Conditions: hM4 cells, PAM with EC20 ACh; for % ACh max: active compounds read high

Muscarinic acetylcholine receptor M4 (Homo sapiens), sequence (P08173 whole entry, looked up): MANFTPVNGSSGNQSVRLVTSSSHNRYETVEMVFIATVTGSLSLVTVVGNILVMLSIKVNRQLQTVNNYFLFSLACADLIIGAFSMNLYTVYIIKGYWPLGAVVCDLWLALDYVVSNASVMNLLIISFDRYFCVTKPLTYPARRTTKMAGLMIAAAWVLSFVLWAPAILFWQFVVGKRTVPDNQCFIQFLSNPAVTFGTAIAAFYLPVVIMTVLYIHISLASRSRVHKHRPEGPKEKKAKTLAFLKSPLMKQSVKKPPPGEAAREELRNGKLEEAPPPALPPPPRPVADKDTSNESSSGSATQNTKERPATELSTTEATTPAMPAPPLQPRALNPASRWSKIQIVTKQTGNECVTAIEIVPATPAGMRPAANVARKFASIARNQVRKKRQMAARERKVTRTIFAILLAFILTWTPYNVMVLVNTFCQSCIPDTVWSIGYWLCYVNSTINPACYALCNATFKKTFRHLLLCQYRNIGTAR

Row | EC50 [nM] | % ACh max | SMILES | further results
1 | 89 |  | COc1ccc(CNC(=O)c2sc3nc(C)c(Cl)c(C)c3c2N)cc1 | 
2 |  | inactive | COc1ccc(C)c2sc(NC(=O)c3ccc(C)cc3)nc12 | 
3 | > 10000 |  | COc1ccc(C)c2sc(NC(=O)C3CCC3)nc12 | 
4 | > 10000 |  | COc1ccc(C)c2sc(NC(=O)C3CC3C)nc12 (centres undefined) | 
5 | 3580 |  | COc1ccc(C)c2sc(NC(=O)NC3CCCC3)nc12 | 
6 | 37 |  | Cc1nc2sc(C(=O)NCc3ccncc3)c(N)c2c(C)c1Cl | 
7 | 2300 |  | COc1cccc2sc(NC(=O)c3ccncc3)nc12 | 
8 | 183 |  | Cc1nc2sc(C(=O)NC(C)C)c(N)c2c(C)c1Cl | 
9 | > 10000 |  | COc1ccc(C)c2sc(C(=O)NC3CC3)nc12 | 
10 |  | inactive | COc1ccc(C)c2sc(NS(=O)(=O)c3cnn(C)c3)nc12 | 
11 | 29 |  | Cc1nc2sc(C(=O)NC3CCOC3)c(N)c2c(C)c1Cl (centres undefined) | 
12 |  | inactive | O=C(Nc1nc2ccccc2s1)C1CCCCO1 (centres undefined) | 
13 | > 10000 |  | COCC(=O)Nc1nc2c(OC)ccc(C)c2s1 | 
14 |  | inactive | COc1ccc(C)c2sc(NC(=O)c3ccc(F)cc3)nc12 | 
15 |  |  | Cc1nc2sc(C(=O)NCCc3cccnc3)c(N)c2c(C)c1Cl | outcome: inactive
16 |  | inactive | O=C(Nc1nc2cccnc2s1)C1CCCC1 | 
17 | 220 |  | Cc1nc2sc(C(=O)NC3CCOCC3)c(N)c2c(C)c1Cl | 
18 | 601 |  | Cc1nc2sc(C(=O)NC(C)c3cccnc3)c(N)c2c(C)c1Cl (centres undefined) | 
19 |  | inactive | COc1ccc(C)c2sc(NS(=O)(=O)c3ccc(F)cc3F)nc12 | 
20 |  | inactive | COc1ccc(C)c2sc(C(=O)Nc3ccncc3)nc12 | 
21 |  |  | CCOc1ccc(NC(=O)c2sc3nc(C)c(Cl)c(C)c3c2N)cc1 | outcome: inactive
22 | 745 |  | COc1ccc(C)c2sc(NC(=O)c3cnccn3)nc12 | 
23 | > 10000 |  | CCCC(=O)Nc1nc2c(OC)ccc(C)c2s1 | 
24 |  | inactive | COc1ccc(C)c2sc(NCC3CC3)nc12 | 

Row | EC50 [nM] | % ACh max | SMILES | further results
25 |  | inactive | COc1ccc(C)c2sc(NC(=O)N3CCCCC3)nc12 | 
26 |  | inactive | COc1ccc(C)c2sc(NC(=O)NCc3ccncc3)nc12 | 
27 |  | inactive | COc1ccc(C)c2sc(NC(=O)Nc3ccncc3)nc12 | 
28 | 188 |  | Cc1nc2sc(C(=O)NC3CCCCC3)c(N)c2c(C)c1Cl | 
29 | 173 |  | Cc1nc2sc(C(=O)NCc3ccncn3)c(N)c2c(C)c1Cl | 
30 |  | inactive | COc1ccc(C)c2sc(C(=O)Nc3ccc(C)nc3)nc12 | 
31 |  | inactive | COc1ccc(C)c2sc(NC(=O)c3cc(F)cc(F)c3)nc12 | 
32 | 1410 |  | Cc1nc2sc(C(=O)NC(C)c3ccccn3)c(N)c2c(C)c1Cl (centres undefined) | 
33 |  | inactive | COc1ccc(C)c2sc(C(=O)NC3CCCCC3)nc12 | 
34 | 1090 |  | Cc1nc2sc(C(=O)NCC3CCCCC3)c(N)c2c(C)c1Cl | 
35 |  | 36.4% | COc1ccc(C)c2sc(C(=O)NC3COC3)nc12 | 
36 | > 10000 |  | COc1ccc(C)c2sc(NC(=O)C3CC3)nc12 | 
37 |  | inactive | COc1ccc(C)c2sc(NC(=O)CCc3ccccc3)nc12 | 
38 |  | inactive | COc1ccc(C)c2sc(C(=O)NCc3ccncc3)nc12 | 
39 | 293 |  | Cc1nc2sc(C(=O)NCc3ccccn3)c(N)c2c(C)c1Cl | 
40 |  | 64.1% | COc1ccc(C)c2sc(NC(=O)C3CCCCO3)nc12 (centres undefined) | 
41 | 1140 |  | Cc1nc2sc(C(=O)NCc3ccc(C(F)(F)F)cc3)c(N)c2c(C)c1Cl | 
42 | > 10000 |  | COc1ccc(C)c2sc(NC(=O)C(C)C)nc12 | 
43 |  | inactive | COc1ccc(C)c2sc(NC(=O)c3ccc(F)cc3F)nc12 | 
44 |  | inactive | CCCCC1CC1C(=O)Nc1nc2c(OC)ccc(C)c2s1 (centres undefined) | 
45 | 328 |  | Cc1nc2sc(C(=O)NCc3cccnc3)c(N)c2c(C)c1Cl | 
46 |  | inactive | COc1ccc(C)c2sc(NS(=O)(=O)c3cccc(Cl)c3)nc12 | 
47 | 211 |  | Cc1nc2sc(C(=O)NCCc3ccncc3)c(N)c2c(C)c1Cl | 
48 | 250 |  | Cc1nc2sc(C(=O)NCc3cnccn3)c(N)c2c(C)c1Cl | 

Row | EC50 [nM] | % ACh max | SMILES | further results
49 |  |  | Cc1nc2sc(C(=O)NCc3ccc(Cl)cc3)c(N)c2c(C)c1Cl | outcome: active; potentiator
50 | > 10000 |  | COc1ccc(C)c2sc(NC(=O)C3CCCCC3)nc12 | 
51 |  | inactive | COc1ccc(C)c2sc(NC(=O)C3=C(C)OCCO3)nc12 | 
52 |  | inactive | COc1ccc(C)c2sc(NS(=O)(=O)c3ccc4occc4c3)nc12 | 
53 |  | inactive | COc1ccc(C)c2sc(C(=O)NC3CCCC3)nc12 | 
54 | 120 |  | Cc1nc2sc(C(=O)NCc3cccc(F)c3F)c(N)c2c(C)c1Cl | 
55 | > 10000 |  | COc1ccc(C)c2sc(NC(=O)C3CCCC3)nc12 | 
56 | 154 |  | Cc1nc2sc(C(=O)NCc3ccccc3Cl)c(N)c2c(C)c1Cl | 
57 |  | inactive | COc1ccc(C)c2sc(NC(=O)c3c(F)cccc3F)nc12 | 
58 | 1400 |  | COc1ccc(C)c2sc(NC(=O)c3ccncc3)nc12 | 
59 |  | inactive | COc1ccc(C)c2sc(NS(=O)(=O)c3cccc(C)c3)nc12 | 
60 | 425 |  | COCCCNC(=O)c1sc2nc(C)c(Cl)c(C)c2c1N | 
61 | 174 |  | Cc1nc2sc(C(=O)NCc3nccs3)c(N)c2c(C)c1Cl | 
62 |  | inactive | COc1ccc(C)c2sc(NC(C)=O)nc12 | 
63 |  |  | Cc1nc2sc(C(=O)NCc3ccc(F)c(F)c3)c(N)c2c(C)c1Cl | outcome: active; potentiator
64 | 1430 |  | COc1ccc(C)c2sc(NC(=O)c3ccco3)nc12 | 
65 |  |  | COc1ccc(NC(=O)c2sc3nc(C)c(Cl)c(C)c3c2N)cc1 | outcome: active; potentiator
66 | 2500 |  | COc1ccc(C)c2sc(NC(=O)c3cccnc3)nc12 | 
67 | > 10000 |  | COc1ccc(C)c2sc(NC(=O)C3CCCOC3)nc12 (centres undefined) | 
68 | 170 |  | Cc1nc2sc(C(=O)NCc3ccc4c(c3)OCO4)c(N)c2c(C)c1Cl | 
69 | 906 |  | Cc1nc2sc(C(=O)NC3COC3)c(N)c2c(C)c1Cl | 
70 | 596 |  | Cc1nc2sc(C(=O)NCCC3CCCN3C)c(N)c2c(C)c1Cl (centres undefined) | 
71 | 372 |  | Cc1nc2sc(C(=O)NC(C)(C)C)c(N)c2c(C)c1Cl | 
72 |  | inactive | COc1ccc(C)c2sc(NS(=O)(=O)c3cc(C)ccn3)nc12 | 

Row | EC50 [nM] | % ACh max | SMILES | further results
73 |  | inactive | COc1ccc(C)c2sc(NC(=O)c3ccccn3)nc12 | 
74 |  | inactive | O=C(Nc1nc2cccnc2s1)C1CCC1 | 
75 | 222 |  | Cc1nc2sc(C(=O)NCc3ccnnc3)c(N)c2c(C)c1Cl | 
76 | 600 |  | Cc1nc2sc(C(=O)NC(C)c3ccncc3)c(N)c2c(C)c1Cl (centres undefined) | 
77 |  |  | Cc1nc2sc(C(=O)Nc3ccccc3N(C)C)c(N)c2c(C)c1Cl | outcome: inactive
78 | 132 |  | Cc1ccc(CNC(=O)c2sc3nc(C)c(Cl)c(C)c3c2N)cc1 | 
79 |  | inactive | Clc1cccc(Nc2n[nH]c3ccccc23)c1 | 
80 | 133 |  | Cc1nc2sc(C(=O)NCc3ccccc3)c(N)c2c(C)c1Cl | 
81 |  | inactive | O=C(Nc1nc2cccnc2s1)c1cccnn1 | 
82 | 686 |  | Cc1nc2sc(C(=O)NCCc3ccccn3)c(N)c2c(C)c1Cl | 
83 |  | inactive | COc1ccc(C)c2sc(NS(=O)(=O)c3ccc(C(F)(F)F)cc3)nc12 | 
84 |  | inactive | COc1ccc(C)c2sc(NC(=O)NC3CCC3)nc12 | 
85 |  | inactive | O=C(Nc1nc2cccnc2s1)c1cnccn1 | 
86 | 1900 |  | COc1ccc(C)c2sc(NC(=O)C3=COCCO3)nc12 | 
87 | 21 |  | Cc1nc2sc(C(=O)NC3CC3)c(N)c2c(C)c1Cl | 
88 |  | inactive | COc1ccc(C)c2sc(NC(=O)CC(C)(C)C)nc12 | 
89 |  | inactive | COc1ccc2nc(NC(=O)c3ccncc3)sc2n1 | 
90 |  | inactive | COc1ccc(C)c2sc(NC(=O)c3ccc(F)c(F)c3)nc12 | 
91 | 57 |  | Cc1cc(CNC(=O)c2sc3nc(C)c(Cl)c(C)c3c2N)ccn1 | 
92 | > 10000 |  | COc1ccc(C)c2sc(NC(=O)N3CCCC3)nc12 | 
93 | 1070 |  | Cc1nc2sc(C(=O)NCc3ncccn3)c(N)c2c(C)c1Cl | 
94 | > 10000 |  | COc1ccc(C)c2sc(NC(=O)NC3CC3)nc12 | 
